# Data as given in patent US20220202799A1, “PHARMACEUTICAL FORMULATIONS CONTAINING P2Y14 ANTAGONISTS” (priority 2019, published 2022).
# Like-named read-outs stand apart in the source and are kept apart here.
# How the values were obtained:
# [1] = Plasma concentrations and TK parameters, 72-hour continuous intravenous infusion; type: in vivo, Sprague-Dawley rats; settings: for concentration at 84 h / concentration at 96 h / concentration at 24 h / concentration at 48 h / concentration at 72 h / concentration at 78 h: male, Sprague-Dawley, rat, plasma, iv, male Sprague-Dawley rats
# Experimental: The safety and pharmacokinetics of PPTN (KB-1801) in rats receiving continuous intravenous injections of SBECD-containing solutions were analyzed. Three cohorts of six male and six female rats each were given continuous intravenous infusion of PPTN (KB-1801) at 10 mg/kg/day, 30 mg/kg/day or 100 mg/kg/day in a dosing solution containing PPTN at 0.25 mg/mL, 0.75 mg/mL or 2.5 mg/mL and SBECD at about 3.8%. Dosing volume was 40 mIkg/day. [table]
# [2] = TPGS enhancement of solubility of PPTN at neutral pH; type: physicochemical
# Experimental: α-Tocopherol polyethylene glycol succinate (TPGS) was tested for enhancement of solubility of PPTN at neutral pH. A solution containing 5 mg/mL PPTN and 4% TPGS was made by mixing components as indicated in Table 5 with stirring and heating.
# To create a solution suitable for in vitro studies, the solution containing 5 mg/mL PPTN and 4% TPGS created above was diluted into phosphate-buffered saline by mixing components as indicated in Table 6.
# rats = test: Safety of PPTN/SBECD formulations during continuous intravenous infusion; type: in vivo; settings: male Sprague-Dawley rat; 72-hour intravenous infusion at 100 mg/kg
# Experimental: The safety and pharmacokinetics of PPTN (KB-1801) in rats receiving continuous intravenous injections of SBECD-containing solutions were analyzed. Three cohorts of six male and six female rats each were given continuous intravenous infusion of PPTN (KB-1801) at 10 mg/kg/day, 30 mg/kg/day or 100 mg/kg/day in a dosing solution containing PPTN at 0.25 mg/mL, 0.75 mg/mL or 2.5 mg/mL and SBECD at about 3.8%. Dosing volume was 40 mIkg/day.
# [3] = 10 mg/kg/day, 72-hour intravenous infusion at 10 mg/kg/day, read-out: Plasma concentration, individual animal
# [4] = 30 mg/kg/day, 72-hour intravenous infusion at 30 mg/kg/day, read-out: Plasma concentration, Mean
# [5] = 30 mg/kg/day, 72-hour intravenous infusion at 30 mg/kg/day, read-out: Plasma concentration, individual animal
# [6] = 100 mg/kg, 72-hour intravenous infusion at 100 mg/kg, read-out: Plasma concentration, Mean
# [7] = 100 mg/kg, 72-hour intravenous infusion at 100 mg/kg, read-out: Plasma concentration, individual animal
compound,measurement,setting,value
"O=C(O)c1cc(-c2ccc(C3CCNCC3)cc2)c2ccc(-c3ccc(C(F)(F)F)cc3)cc2c1 [KB-1801, 4-[4-(piperidin-4-yl)phenyl]-7-[4-(trifluoromethyl)phenyl]-2-naphthoic acid]",concentration at 84 h,[1]; [3],0.086 µg/mL
same,concentration at 96 h,"[1]; 10 mg/kg/day, 72-hour intravenous infusion at 10 mg/kg/day, read-out: Plasma concentration, Mean",0.0551 µg/mL
same,concentration at 96 h,[1]; [3],0.06 µg/mL
same,concentration at 24 h,[1]; [4],1.95 µg/mL
same,concentration at 24 h,[1]; [5],1.52 µg/mL
same,concentration at 48 h,[1]; [4],2.5 µg/mL
same,concentration at 48 h,[1]; [5],2.8 µg/mL
same,concentration at 72 h,[1]; [4],1.67 µg/mL
same,concentration at 72 h,[1]; [5],1.11 µg/mL
same,concentration at 78 h,[1]; [4],0.736 µg/mL
same,concentration at 78 h,[1]; [5],0.698 µg/mL
same,concentration at 84 h,[1]; [4],0.29 µg/mL
same,concentration at 84 h,[1]; [5],0.289 µg/mL
same,concentration at 96 h,[1]; [4],0.172 µg/mL
same,concentration at 96 h,[1]; [5],0.139 µg/mL
same,concentration at 24 h,[1]; [6],9.55 µg/mL
same,concentration at 24 h,[1]; [7],10.3 µg/mL
same,concentration at 48 h,[1]; [6],7.03 µg/mL
same,concentration at 48 h,[1]; [7],7.4 µg/mL
same,concentration at 72 h,[1]; [6],9.79 µg/mL
same,concentration at 72 h,[1]; [7],11.8 µg/mL
same,concentration at 78 h,[1]; [6],2.64 µg/mL
same,concentration at 78 h,[1]; [7],3.22 µg/mL
same,concentration at 84 h,[1]; [6],2.23 µg/mL
same,concentration at 84 h,[1]; [7],2.65 µg/mL
same,concentration at 96 h,[1]; [6],0.471 µg/mL
same,concentration at 96 h,[1]; [7],0.598 µg/mL
same,Time for plasma PPTN concentrations to reach steady state,"[1]; rats, continuous intravenous infusion",≤ 24 h
same,"Plasma PPTN concentrations, relation to dose","[1]; rats, continuous intravenous infusion 10, 30, 100 mg/kg/day",linearly dose-related
same,Solution pH (final),"[2]; 100 μM KB-1801, 0.04 wt % TPGS in buffered saline",Final pH: 7.4
same,Solution appearance,"[2]; 100 μM KB-1801, 0.04 wt % TPGS in buffered saline (5 mg/ml solution diluted 100x)",Resulting clear solution
same,Solution appearance,"[2]; 5 mg/mL KB-1801, 4 wt % TPGS, after phosphate buffer 20 mM pH 8.3",Resulting clear
same,Solution pH (final),"[2]; 5 mg/mL KB-1801, 4 wt % TPGS, phosphate buffer, buffered saline",Final pH: 7.0-7.4
same,Solution appearance,"[2]; 5 mg/mL KB-1801 with TPGS solution, 4 wt %, stirring and heating",Resulting clear
same,"Mortality, animal 16003",rats,NS: No Sample. Animal 16003 died shortly after the 24h timepoint according to CRL.
